Patent US9040663B2, “Melanocortin receptor-specific peptides” (AstraZeneca AB, priority 2009, dated 2015)
“And” between values parts separate entries of the source, which are not always exact repeats. Equal values may be shown once. Read-outs that look alike come from different tables or passages of the source.

Legend:
hMC4-R [1] = molecular target: T1, hMC4-R (Homo sapiens (Human), UniProt P32245); assay: Competitive inhibition binding assay using [I125]-NDP-α-MSH, hMC4-R; settings: membranes of HEK-293 cells expressing recombinant hMC4-R, read-out: MC4-R Ki
T1 sequence (P32245 whole entry): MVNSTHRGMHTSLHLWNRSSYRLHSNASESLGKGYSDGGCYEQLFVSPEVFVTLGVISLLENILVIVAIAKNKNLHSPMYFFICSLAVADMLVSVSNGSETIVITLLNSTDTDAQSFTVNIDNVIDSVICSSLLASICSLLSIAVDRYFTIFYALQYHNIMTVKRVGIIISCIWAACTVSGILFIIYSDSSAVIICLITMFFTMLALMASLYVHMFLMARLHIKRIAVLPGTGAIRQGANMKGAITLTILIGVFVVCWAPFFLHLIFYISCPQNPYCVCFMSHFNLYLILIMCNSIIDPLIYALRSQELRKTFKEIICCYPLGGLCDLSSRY

MC1-R = assay: Competitive inhibition binding assay using [I125]-NDP-α-MSH, MC1-R; settings: membranes of B-16 mouse melanoma cells (endogenous MC1-R), in some instances HEK-293 hMC1-R
Procedure, shortened: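 Radioligand displacement on membranes from B-16 mouse melanoma cells (endogenous MC1-R) or HEK-293 expressing recombinant hMC1-R, with 0.1 nM [I125]-NDP-α-MSH and increasing peptide concentrations in HEPES pH 7.5 buffer, 60 min at 37° C.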

hMC4-R [2] = molecular target: T1, hMC4-R; assay: High and low density hMC4-R functional assay (cAMP, HEK293-T-REx-MC4-R cells); type: cell-based; settings: for Emax: NDP-α-MSH = 100%
[3] = Food intake and body weight change; type: in vivo, Sprague-Dawley rats; settings: male rats, 1.0 mg/kg s.c., mean ± SEM; for BW change 0-24 h: body weight; for FI 0-4 h / FI 0-24 h: food intake
Procedure: 7.4 Food Intake and Body Weight Change.
Change in food intake and body weight was evaluated for selected peptides administered by subcutaneous injection route. Male Sprague-Dawley rats were obtained from Hilltop Lab Animals, Inc. (Scottdale, Pa.). Animals were individually housed in conventional polystyrene hanging cages and maintained on a controlled 12 hour on/off light cycle. Water and pelleted food (ProLab RMH 2500, W.F. Fisher & Son Inc.) was provided ad libitum. The rats were dosed subcutaneously with vehicle (3.2% mannitol/50 mM Tris buffer) or selected peptides (1.0 mg/kg). The changes in food intake for the 4 and 24 hour periods after dosing and the changes in body weight for the 24 hour period after dosing were determined. The changes in body weight and food intake for the 48 hour and 72 hour periods after dosing was also measured to determine reversal of changes in body weight and food intake effects back to baseline levels (not shown).

[4] = Induction of penile erection; settings: male rats; for Total number of PE/rat 0-1 h: mean ± SEM; for % Responders: rats showing at least one erection
Procedure: 7.5 Induction of Penile Erection.
(§1) The ability of peptides of the present invention to induce penile erection (PE) in male rats was evaluated with selected peptides. Male Sprague-Dawley rats weighing 250-300 g were kept on a 12 hour on/off light cycle with food and water ad libitum. All behavioral studies were performed between 9 a.m. and 4 p.m.
(§2) Corresponding vehicle controls (3.2% mannitol/50 mM Tris buffer) were run in parallel.

[5] = in vivo, sc
Procedure: 7.5 Induction of Penile Erection.
as §1, §2

[6] = 0.1 ng/mL Doxycycline (low density hMC4-R system)
[7] = 0.1 ng/mL Doxycycline (low density hMC4-R system), read-out: Intrinsic Activity (%)
[8] = 10 ng/mL Doxycycline (high density hMC4-R system), read-out: Intrinsic Activity (%)
[9] = 10 ng/mL Doxycycline (high density hMC4-R system)

Row | Compound | Ki (hMC4-R [1]) [nM] | Ki (MC1-R) [nM] | EC50 (hMC4-R [2]; [6]) [nM] | Emax (hMC4-R [2]; [7]) [%] | Emax (hMC4-R [2]; [8]) [%] | Total number of PE/rat 0-1 h ([4]; 1.0 mg/kg s.c.) | % Responders ([4]; 1.0 mg/kg s.c.) [%] | Total number of PE/rat 0-1 h ([4]; 3.0 mg/kg s.c.) | % Responders ([4]; 3.0 mg/kg s.c.) [%] | Total number of PE/rat 0-1 h ([5]; 1 mg/kg) | Total number of PE/rat 0-1 h ([5]; 3 mg/kg) | EC50 (hMC4-R [2]; [9]) [nM] | Emax (hMC4-R [2]; Table 1, mean values, 0.1 ng/mL Doxycycline (low density hMC4-R system), read-out: Intrinsic activity (%)) [%] | BW change 0-24 h [3] [g] | FI 0-4 h [3] | FI 0-24 h [3]
1 | CC(=O)N[C@@H](CCCNC(=N)N)C(=O)N[C@H]1CCC(=O)NCCC[C@@H](C(N)=O)NC(=O)[C@H](Cc2c[nH]c3ccccc23)NC(=O)[C@H](CCCNC(=N)N)NC(=O)[C@@H](Cc2ccc(F)cc2)NC(=O)[C@@H]2CCCN2C1=O [Example 67, Ac-Arg-cyclo(Glu-Pro-D-Phe(4-F)-Arg-Trp-Orn)-NH2] | 5 | 130 | 1 | 38 | 99 | 2.3 ± 0.42 | 86 | 3.3 ± 1.0 | 100 | – | – | 0.14 | – | -0.05 ± 0.39 | 4.20 ± 0.66 g | 21.51 ± 1.27 g
2 | CC(=O)N[C@@H](CCCNC(=N)N)C(=O)N[C@H]1CCC(=O)NCCC[C@@H](C(N)=O)NC(=O)[C@H](Cc2c[nH]c3ccccc23)NC(=O)[C@H](CCCNC(=N)N)NC(=O)[C@@H](Cc2ccccc2C)NC(=O)[C@H](CCC(N)=O)NC1=O [Example 110, Ac-Arg-cyclo(Glu-Gln-D-Phe(2-Me)-Arg-Trp-Orn)-NH2] | 5 | 105 | 0.6 | 84 | 105 | – | – | – | – | – | – | 0.06 | – | – | – | –
3 | CC(=O)N[C@@H](CCCNC(=N)N)C(=O)N[C@H]1CCC(=O)NCCC[C@@H](C(N)=O)NC(=O)[C@H](Cc2c[nH]c3ccccc23)NC(=O)[C@H](CCCNC(=N)N)NC(=O)[C@@H](Cc2ccccc2C(F)(F)F)NC(=O)[C@H](CCC(N)=O)NC1=O [Example 114, Ac-Arg-cyclo(Glu-Gln-D-Phe(2-CF3)-Arg-Trp-Orn)-NH2] | 8 | 93 | 1 | 73 | 117 | – | – | – | – | – | – | – | – | – | – | –
4 | CC(=O)N[C@@H](CCCNC(=N)N)C(=O)N[C@H]1CCC(=O)NCCC[C@@H](C(=O)O)NC(=O)[C@H](Cc2c[nH]c3ccccc23)NC(=O)[C@H](CCCNC(=N)N)NC(=O)[C@@H](Cc2ccccc2)NC(=O)[C@H](CCN)NC1=O [Ref Ex 2, Ac-Arg-cyclo(Glu-Dab-D-Phe-Arg-Trp-Orn)-OH, reference compound] | – | – | – | – | – | – | – | 6.0 ± 0.44 | 100 | – | – | – | 92 | – | 3.17 ± 0.42 g and 4.41 ± 0.48 g and 2.80 ± 0.27 g | 19.98 ± 0.60 g and 20.84 ± 1.01 g and 21.81 ± 1.04 g

Further lines, with some results ahead:

Row | Ki (hMC4-R [1]) [nM] | Ki (MC1-R) [nM] | EC50 (hMC4-R [2]; [6]) [nM] | Emax (hMC4-R [2]; [7]) [%] | Emax (hMC4-R [2]; [8]) [%] | Total number of PE/rat 0-1 h ([4]; 1.0 mg/kg s.c.) | % Responders ([4]; 1.0 mg/kg s.c.) [%] | Total number of PE/rat 0-1 h ([4]; 3.0 mg/kg s.c.) | % Responders ([4]; 3.0 mg/kg s.c.) [%] | Total number of PE/rat 0-1 h ([5]; 1 mg/kg) | Total number of PE/rat 0-1 h ([5]; 3 mg/kg) | EC50 (hMC4-R [2]; [9]) [nM] | Emax (hMC4-R [2]; Table 1, mean values, 0.1 ng/mL Doxycycline (low density hMC4-R system), read-out: Intrinsic activity (%)) [%] | Compound | BW change 0-24 h [3] [g] | FI 0-4 h [3] | FI 0-24 h [3]
5 | 5 | 870 | 1 | 43 | 100 | 1.7 ± 0.36 | 29 | 6.0 ± 0.76 | 100 | – | – | – | – | CC(=O)N[C@@H](CCCNC(=N)N)C(=O)N[C@H]1CCC(=O)NCCC[C@@H](C(N)=O)NC(=O)[C@H](Cc2c[nH]c3ccccc23)NC(=O)[C@H](CCCNC(=N)N)NC(=O)[C@@H](Cc2ccc(C#N)cc2)NC(=O)[C@H](CC(N)=O)NC1=O [Example 43, Ac-Arg-cyclo(Glu-Asn-D-Phe(4-CN)-Arg-Trp-Orn)-NH2] | 0.45 ± 0.35 | 6.85 ± 0.55 g | 24.44 ± 0.85 g
6 | 4 | – | – | 40 | 97 | – | 100 | – | 86 | 4.9 ± 1.1 | 4.4 ± 1.1 | – | – | CC(=O)N[C@@H](CCCNC(=N)N)C(=O)N[C@H]1CCC(=O)NCCC[C@@H](C(N)=O)NC(=O)[C@H](Cc2c[nH]c3ccccc23)NC(=O)[C@H](CCCNC(=N)N)NC(=O)[C@@H](Cc2ccc(C#N)cc2)NC(=O)[C@H](CCC(N)=O)NC1=O [Example 46, Ac-Arg-cyclo(Glu-Gln-D-Phe(4-CN)-Arg-Trp-Orn)-NH2] | -0.29 ± 0.55 | 3.71 ± 0.68 g | 20.56 ± 1.14 g
7 | 4 | 235 | 0.8 | 54 | 108 | – | – | – | – | – | – | 0.17 | – | CC(=O)N[C@@H](CCCNC(=N)N)C(=O)N[C@H]1CCCNC(=O)CC[C@@H](C(N)=O)NC(=O)[C@H](Cc2c[nH]c3ccccc23)NC(=O)[C@H](CCCNC(=N)N)NC(=O)[C@@H](Cc2ccccc2C(F)(F)F)NC(=O)[C@H](CCC(N)=O)NC1=O [Example 115, Ac-Arg-cyclo(Orn-Gln-D-Phe(2-CF3)-Arg-Trp-Glu)-NH2] | – | – | –
